The results in this text go back to patent publication US8497371B2, “Pipemidic acid derivative autotaxin inhibitors” (University of Memphis Research Foundation, priority 2009, dated 2013).

Molecules are shown by their SMILES.

The target in assay [1] is T1, ATX (Homo sapiens, UniProt Q13822). To be noted: for Inhibition Mechanism: FS-3 substrate.
Another assay concerns the target T2, human NPP6 (Homo sapiens, UniProt Q6UWR7).
T2 construct: transfected with human NPP6ex^51 or human NPP7ex expression plasmids; made in house; host or cells: HEK293 cells, transient transfection, pcDNA3.1(+); unconcentrated conditioned medium (CM)
T2 sequence (Q6UWR7 23-419 limits assumed): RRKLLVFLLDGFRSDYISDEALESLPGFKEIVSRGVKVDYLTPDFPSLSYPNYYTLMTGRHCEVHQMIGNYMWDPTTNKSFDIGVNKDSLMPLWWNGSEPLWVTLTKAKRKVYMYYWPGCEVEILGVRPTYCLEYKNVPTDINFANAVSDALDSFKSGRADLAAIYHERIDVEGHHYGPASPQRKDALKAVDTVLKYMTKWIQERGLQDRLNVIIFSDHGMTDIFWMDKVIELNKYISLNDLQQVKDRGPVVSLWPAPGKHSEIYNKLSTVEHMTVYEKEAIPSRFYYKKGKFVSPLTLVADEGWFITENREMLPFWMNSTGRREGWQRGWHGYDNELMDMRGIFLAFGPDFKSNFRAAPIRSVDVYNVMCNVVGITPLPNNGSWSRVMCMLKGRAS
As to the kind of experiment: Determination of NPP6 inhibition (pNPPC substrate). The format is biochemical. To be noted: 10 μM inhibitor. Here is the method: (§1) Inhibitor selectivity was assayed using p-nitrophenylphosphoryl-choline (pNPPC) (Sigma-Aldrich, St. Louis, Mo.) as substrate for NPP6 and NPP7. The final volume (60 μL) included 20 μL (CM, NPP6 or CCM, NPP7, 20 μL inhibitor (10 μM including 1% DMSO) in assay buffer, and 20 μL pNPPC (10 mM, NPP6 or 1 NPP7) in assay buffer. NPP6 assay buffer contained 500 mM NaCl, 0.05% Triton X-100, 100 mM Tris-HCl (pH 9.0), whereas NPP7 assay buffer was comprised of 50 mM Tris HCl, pH 8.5, 150 mM NaCl, and 10 mM taurocholic acid. However, unlike the published methods, EDTA was not added to the NPP7 assay buffer. All assays were performed in 96-well, half area plates (Corning Inc., Lowell, Mass.) at 37° C. with data collected at 2 minute intervals using a Synergy2 absorbance plate reader (BioTek, Winooski, Vt.). Results are shown at the one hour time point, when all absorbance changes as a function of time were linear. Readings were normalized to vehicle control after subtraction of absorbance in the absence of CM or CCM. Data are shown as the mean±S.D. of at least three wells. All experiments were repeated twice and representative results are shown.
(§2) Assays were performed with CM or CCM from HEK293 cells transiently transfected with NPP6 and 7 expression plasmids, respectively. HEK293 cells were seeded in Dulbecco's modified Eagle's medium (DMEM) containing 10% fetal bovine serum, 100 U/ml penicillin, 100 μg/ml streptomycin (Hyclone, Logan, Utah), and 2 mM L-glutamine. HEK293 cells were grown overnight at 37° C. under 5% CO2 to 80% confluence. The cells were then transfected with human NPP6ex^51 or human NPP7ex expression plasmids in the pcDNA3.1(+) mammalian vector in the presence of Polyfect Transfection Reagent (Hyclone, Logan, Utah). Six hours after transfection, the culture medium was changed to serum free DMEM containing L-glutamine and cells were incubated for 48 hours. Expressed protein was collected (NPP6 and NPP7) and concentrated ˜10×(NPP7) using 10 kDa molecular weight cutoff filters (Millipore, Beverly, Mass.) in an Amicon pressure cell (Millipore, Beverly, Mass.).

The target of assay [2] is T1, ATX. As to the kind of experiment: ATX inhibition assay with FS-3 substrate. The arrangement: conditioned serum-free medium (CCM) from MDA-MB-435 cells as the source of ATX; endogenous in cells; host or cells: MDA-MB-435 cells (about 10x concentrated serum-free conditioned medium). The conditions noted are these: for % Response at 10 μM (FS-3): 10 μM compound, FS-3 hydrolysis normalized to vehicle control (low = strong inhibition), mean ± S.D.; for single dose response comparison by aromatic substituent and position: Table 2, same values as % Response at 10 μM; for inhibition at 10 µM: single dose 10 μM, % inhibition, read-out: inhibition of ATX-mediated hydrolysis of FS-3; for IC50: FS-3 substrate. The assay is classed as biochemical.

The next assay concerns the target T3, human NPP7 (Homo sapiens, UniProt Q6UWV6).
T3 construct: transfected with human NPP6ex^51 or human NPP7ex expression plasmids; made in house; host or cells: HEK293 cells, transient transfection, pcDNA3.1(+); conditioned medium concentrated about 10x (CCM)
T3 sequence (Q6UWV6 22-433 limits assumed): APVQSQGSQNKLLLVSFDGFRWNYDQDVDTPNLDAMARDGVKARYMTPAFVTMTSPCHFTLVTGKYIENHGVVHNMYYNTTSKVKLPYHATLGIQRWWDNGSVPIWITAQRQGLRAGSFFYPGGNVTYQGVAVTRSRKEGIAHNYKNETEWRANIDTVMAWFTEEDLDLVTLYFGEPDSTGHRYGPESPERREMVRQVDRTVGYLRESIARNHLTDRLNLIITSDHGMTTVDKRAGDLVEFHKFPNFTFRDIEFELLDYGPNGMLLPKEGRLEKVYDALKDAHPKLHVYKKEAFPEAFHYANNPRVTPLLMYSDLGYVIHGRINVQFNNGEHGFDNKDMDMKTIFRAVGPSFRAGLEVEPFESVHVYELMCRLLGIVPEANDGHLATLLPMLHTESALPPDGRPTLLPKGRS
As to the kind of experiment: Determination of NPP7 inhibition (pNPPC substrate). To be noted: 10 μM inhibitor. The assay is classed as biochemical. On the procedure: as §1, §2

The term inhibition denotes how much of the control response was suppressed. Regarding `CCn1cc(C(=O)O)c(=O)c2cnc(N3CCN(C(=S)Nc4ccc(I)cc4)CC3)nc21` [Compound 3, 2-(4-{[(4-iodophenyl)amino]carbonothioyl}-1-piperazinyl)-8-ethyl-5-oxo-5,8-dihydropyrido[2,3-d]pyrimidine-6-carboxylic acid], at ATX [1], the “mechanism of ATX inhibition” value is listed as “mixed-mode” and the “Inhibition Mechanism” value is “Mixed”. The “effect on activity of NPP6” value on human NPP6 is listed as “None of the compounds affected the activity”. For the same compound, at ATX [2], the “% Response at 10 μM (FS-3)” value stood at 32.7 ± 1.3%; the “single dose response comparison by aromatic substituent and position” value (shortened to “single dose response comparison”) was determined as 32.7 ± 1.3; the inhibition at 10 µM was ≥ 50%. Further, the “effect on activity of NPP7” value on human NPP7 is given as “None of the compounds affected the activity”.

A word on the IC50: it is the concentration that inhibits the measured activity by half. In the case of `CCn1cc(C(=O)O)c(=O)c2cnc(N3CCN(C(=S)Nc4cccc(F)c4)CC3)nc21` [Compound 25, 2-(4-{[(3-fluorophenyl)amino]carbonothioyl}-1-piperazinyl)-8-ethyl-5-oxo-5,8-dihydropyrido[2,3-d]pyrimidine-6-carboxylic acid], the “effect on activity of NPP6” value at human NPP6 is listed as “None of the compounds affected the activity”. Also, on ATX [2], the “% Response at 10 μM (FS-3)” value is reported as 40.5 ± 1.0%; the IC50 came to 16.1 ± 4.5 µM; the “single dose response comparison” value is listed as 40.5 ± 1.0; the inhibition at 10 µM was ≥ 50%. Moreover, the “effect on activity of NPP7” value at human NPP7 is on record as “None of the compounds affected the activity”.

As to `CCn1cc(C(=O)O)c(=O)c2cnc(N3CCN(C(=S)Nc4cccc(I)c4)CC3)nc21` [Compound 29, 2-(4-{[(3-iodophenyl)amino]carbonothioyl}-1-piperazinyl)-8-ethyl-5-oxo-5,8-dihydropyrido[2,3-d]pyrimidine-6-carboxylic acid], at ATX [1], the “mechanism of ATX inhibition” value was “uncompetitive” and the “Inhibition Mechanism” value is on record as “Uncompetitive”. On human NPP6, the “effect on activity of NPP6” value was “None of the compounds affected the activity”. On ATX [2], the “% Response at 10 μM (FS-3)” value is 8.6 ± 0.9%; the “single dose response comparison” value came out at 8.6 ± 0.9; the inhibition at 10 µM was ≥ 50%. Besides, the “effect on activity of NPP7” value at human NPP7 is given as “None of the compounds affected the activity”.

For the compound `CCn1cc(C(=O)O)c(=O)c2cnc(N3CCN(C(=S)Nc4ccccc4OC)CC3)nc21` [Compound 21, 2-(4-{[(2-methoxyphenyl)amino]carbonothioyl}-1-piperazinyl)-8-ethyl-5-oxo-5,8-dihydropyrido[2,3-d]pyrimidine-6-carboxylic acid], at ATX [2], the “% Response at 10 μM (FS-3)” value came out at 97.6 ± 1.8%; the “single dose response comparison” value is 97.6 ± 1.8.

Turning to `CCn1cc(C(=O)O)c(=O)c2cnc(N3CCN(C(=S)Nc4ccccc4I)CC3)nc21` [Compound 26, 2-(4-{[(2-iodophenyl)amino]carbonothioyl}-1-piperazinyl)-8-ethyl-5-oxo-5,8-dihydropyrido[2,3-d]pyrimidine-6-carboxylic acid], on ATX [2], the “% Response at 10 μM (FS-3)” value is 68.4 ± 1.3%; the “single dose response comparison” value amounted to 68.4 ± 1.3.

For `CCn1cc(C(=O)O)c(=O)c2cnc(N3CCN(C(=S)Nc4ccccc4Cl)CC3)nc21` [Compound 17, 2-(4-{[(2-chlorophenyl)amino]carbonothioyl}-1-piperazinyl)-8-ethyl-5-oxo-5,8-dihydropyrido[2,3-d]pyrimidine-6-carboxylic acid], at ATX [2], the “% Response at 10 μM (FS-3)” value was found to be 83.5 ± 8.2%; the “single dose response comparison” value came to 83.5 ± 8.2.

On to `CCn1cc(C(=O)O)c(=O)c2cnc(N3CCN(C(=S)Nc4cccc(OC)c4)CC3)nc21` [Compound 19, 2-(4-{[(3-methoxyphenyl)amino]carbonothioyl}-1-piperazinyl)-8-ethyl-5-oxo-5,8-dihydropyrido[2,3-d]pyrimidine-6-carboxylic acid], for which the “effect on activity of NPP6” value at human NPP6 is “None of the compounds affected the activity”. For the same compound, at ATX [2], the “% Response at 10 μM (FS-3)” value came to 40.9 ± 1.3%; the IC50 stood at 17.7 ± 0.3 µM; the “single dose response comparison” value was 40.9 ± 1.3; the inhibition at 10 µM is ≥ 50%. For the same compound, the “effect on activity of NPP7” value at human NPP7 is “None of the compounds affected the activity”.

`CCn1cc(C(=O)O)c(=O)c2cnc(N3CCN(C(=S)Nc4ccccc4-c4cccc5nsnc45)CC3)nc21` [Compound 10, 2-(4-{[(2-benzothiadiazolphenyl)amino]carbonothioyl}-1-piperazinyl)-8-ethyl-5-oxo-5,8-dihydropyrido[2,3-d]pyrimidine-6-carboxylic acid]: the “% Response at 10 μM (FS-3)” value on ATX [2] is on record as 63.2 ± 2.8%.

In the case of `CCn1cc(C(=O)O)c(=O)c2cnc(N3CCN(C(=S)Nc4ccc(C)cc4)CC3)nc21` [Compound 27, 2-(4-{[(4-methylphenyl)amino]carbonothioyl}-1-piperazinyl)-8-ethyl-5-oxo-5,8-dihydropyrido[2,3-d]pyrimidine-6-carboxylic acid], at human NPP6, the “effect on activity of NPP6” value is reported as “None of the compounds affected the activity”. On ATX [2], the “% Response at 10 μM (FS-3)” value amounted to 49.9 ± 1.5%, the half-maximal inhibitory concentration (IC50) worked out at 16.1 ± 4 µM and the inhibition at 10 µM was ≥ 50%. Also, the “effect on activity of NPP7” value at human NPP7 was “None of the compounds affected the activity”.

`CCn1cc(C(=O)O)c(=O)c2cnc(N3CCN(C(=S)Nc4ccc(F)cc4)CC3)nc21` [Compound 23, 2-(4-{[(4-fluorophenyl)amino]carbonothioyl}-1-piperazinyl)-8-ethyl-5-oxo-5,8-dihydropyrido[2,3-d]pyrimidine-6-carboxylic acid]: the “effect on activity of NPP6” value at human NPP6 is given as “None of the compounds affected the activity”. In addition, at ATX [2], the “% Response at 10 μM (FS-3)” value came to 48.9 ± 1.1%; inhibition was half-maximal at 17.7 µM (IC50); the “single dose response comparison” value is listed as 48.9 ± 1.1; the inhibition at 10 µM was ≥ 50%. For the same compound, the “effect on activity of NPP7” value on human NPP7 is “None of the compounds affected the activity”.

Take `CCn1cc(C(=O)O)c(=O)c2cnc(N3CCN(C(=S)Nc4cccc(Cl)c4Cl)CC3)nc21` [Compound 15, 2-(4-{[(2,3-dichlorophenyl)amino]carbonothioyl}-1-piperazinyl)-8-ethyl-5-oxo-5,8-dihydropyrido[2,3-d]pyrimidine-6-carboxylic acid]: the “% Response at 10 μM (FS-3)” value on ATX [2] came out at 72.3 ± 0.4%.
